≈ marks a conversion by molar mass, not a printed value. Calls of active or inactive are those of the source. The calls are words filed in the database; no cut-off is given here.
Legend:
DLD-1 [1] = test: Cell viability in human DLD1/TRAIL-R cells at 8 ug/ml after 24 hrs in presence of TRAIL; type: functional
HeLa [2] = test: Induction of apoptosis in human HeLa cells assessed as accumulation at G2/M phase after 6 hrs by flow cytometry; type: functional
DLD-1 [3] = test: Cytotoxicity against human DLD1/TRAIL-R cells after 24 hrs; type: functional, cell-based; details: DLD-1, 24 h
HeLa [4] = test: Induction of apoptosis in human HeLa cells assessed as caspase 3 activity at 4 ug/ml; type: functional, cell-based; details: TDE = time-dependent effect
HeLa [5] = test: Induction of apoptosis in human HeLa cells assessed as accumulation at G1 phase after 24 hrs by flow cytometry; type: functional
HeLa [6] = test: Induction of apoptosis in human HeLa cells assessed as accumulation at S phase after 6 hrs by flow cytometry; type: functional
HeLa [7] = test: Reversal of drug-induced apoptosis in human HeLa cells expressing TRAIL-R2/Fc chimera protein after 12 hrs; type: functional, cell-based
HeLa [8] = test: Cell viability in human HeLa cells at 4 ug/ml after 24 hrs; type: functional
HeLa [9] = test: Induction of apoptosis in human HeLa cells assessed as accumulation at subG1 phase after 12 hrs by flow cytometry; type: functional
HeLa [10] = test: Cytotoxicity against human HeLa cells after 24 hrs by FMCA; type: functional, cell-based
HeLa [11] = test: Induction of apoptosis in human HeLa cells assessed as cleavage of caspase 8 at 4 ug/ml after 6 hrs by Western blot; type: functional, cell-based
HeLa [12] = test: Reversal of drug-induced apoptosis in human HeLa cells in presence of caspase 8 inhibitor z-IETD after 12 hrs by Annexin-PI dual staining; type: functional
HeLa [13] = test: Induction of apoptosis in human HeLa cells assessed as cleavage of caspase 8 at 4 ug/ml after 12 hrs by Western blot; type: functional, cell-based
HeLa [14] = test: Induction of apoptosis in human HeLa cells assessed as accumulation at G1 phase after 6 hrs by flow cytometry; type: functional
HeLa [15] = test: Induction of apoptosis in human HeLa cells assessed as accumulation at S phase after 24 hrs by flow cytometry; type: functional
HeLa [16] = test: Induction of apoptosis in human HeLa cells assessed as late apoptotic cells at 4 ug/ml after 24 hrs by annexin V-FITC and PI staining; type: functional
HeLa [17] = test: Induction of apoptosis in human HeLa cells assessed as accumulation at G2/M phase after 24 hrs by flow cytometry; type: functional
HeLa [18] = test: Reversal of drug-induced apoptosis in human HeLa cells ain presence of caspase 9 inhibitor z-LEHD after 12 hrs by Annexin-PI dual staining; type: functional
HeLa [19] = test: Induction of apoptosis in human HeLa cells assessed as accumulation at subG1 phase after 24 hrs by flow cytometry; type: functional
HeLa [20] = test: Induction of apoptosis in human HeLa cells assessed as accumulation at S phase after 12 hrs by flow cytometry; type: functional
DLD-1 [21] = test: Upregulation of TRAIL-R2 protein in human DLD1/TRAIL-R cells at 4 ug/ml by Western blot; type: functional, cell-based
DLD-1 [22] = test: Upregulation of TRAIL-R2 protein in human DLD1/TRAIL-R cells at 8 ug/ml by Western blot; type: functional, cell-based
HeLa [23] = test: Induction of apoptosis in human HeLa cells assessed as accumulation at subG1 phase after 6 hrs by flow cytometry; type: functional
HeLa [24] = test: Cell viability in human HeLa cells at 4 ug/ml after 24 hrs in presence of TRAIL; type: functional
HeLa [25] = test: Cytotoxicity against human HeLa cells expressed as ratio of TRAIL-R2 gene expression in cells treated with drug at 5 ug/ml over control after 24 hrs; type: functional
HeLa [26] = test: Increase in TRAIL-R2 protein level in human HeLa cells at 8 ug/ml after 24 hrs by Western blot; type: functional, cell-based
HeLa [27] = test: Increase in TRAIL-R2 protein level in human HeLa cells at 4 ug/ml after 24 hrs by Western blot; type: functional, cell-based
HeLa [28] = test: Increase in AF016266 mRNA expression in human HeLa cells by RTPCR; type: functional
HeLa [29] = test: Induction of apoptosis in human HeLa cells assessed as early apoptotic cells at 4 ug/ml after 12 hrs by annexin V-FITC/PI staining; type: functional
HeLa [30] = test: Induction of apoptosis in human HeLa cells assessed as early apoptotic cells at 4 ug/ml after 24 hrs by annexin V-FITC/PI staining; type: functional
HeLa [31] = test: Cytotoxicity against human HeLa cells expressed as ratio of RHAMM gene expression in cells treated with drug at 5 ug/ml over control after 24 hrs; type: functional
HeLa [32] = test: Cytotoxicity against human HeLa cells expressed as ratio of Cyr61 gene expression in cells treated with drug at 5 ug/ml over control after 24 hrs; type: functional
HeLa [33] = test: Increase in NM_003607 mRNA expression in human HeLa cells by RTPCR; type: functional, cell-based
HeLa [34] = test: Cytotoxicity against human HeLa cells expressed as ratio of MRCKalpha gene expression in cells treated with drug at 5 ug/ml over control after 24 hrs; type: functional
DLD-1 [35] = test: Cell viability in human DLD1/TRAIL-R cells at 8 ug/ml after 24 hrs; type: functional
HeLa [36] = test: Induction of apoptosis in human HeLa cells assessed as accumulation at G1 phase after 12 hrs by flow cytometry; type: functional
HeLa [37] = test: Induction of apoptosis in human HeLa cells assessed as accumulation at G2/M phase after 12 hrs by flow cytometry; type: functional

## Cc1cc(O)c2c(c1)[C@H](C(C)C)Cc1cc3c(cc1-2)[C@@H](O)[C@@H](C(C)C)c1cc(C)cc(O)c1-3 [PARVIFLORENE F]
DLD-1 [1]
  Activity: 20%
HeLa [2]
  Activity: 15.6%
DLD-1 [3]
  IC50: 9.2 µg/mL (≈ 20.8 µM)
HeLa [4]
  Activity: tde
HeLa [5]
  Activity: 52.1%
HeLa [6]
  Activity: 17.3%
HeLa [7]
  Activity: Active
HeLa [8]
  Activity: 44%
HeLa [9]
  Activity: 31.5%
HeLa [10]
  IC50: 4.3 µg/mL (≈ 9.72 µM)
HeLa [11]
  Activity: Active
HeLa [12]
  Activity: 2.2%
HeLa [13]
  Activity: inactive
HeLa [14]
  Activity: 56.1%
HeLa [15]
  Activity: 5.5%
HeLa [16]
  Activity: 22.9%
HeLa [17]
  Activity: 15.3%
HeLa [18]
  Activity: 4%
HeLa [19]
  Activity: 26.1%
HeLa [20]
  Activity: 10.3%
DLD-1 [21]
  Activity: Active
DLD-1 [22]
  Activity: Active
HeLa [23]
  Activity: 10.9%
HeLa [24]
  Activity: 16%
HeLa [25]
  Ratio: 1.44
HeLa [26]
  Activity: Active
HeLa [27]
  Activity: Active
HeLa [28]
  Fold change: 4.9
HeLa [29]
  Activity: 52.7%
HeLa [30]
  Activity: 41.2%
HeLa [31]
  Ratio: 0.68
HeLa [32]
  Ratio: 0.61
HeLa [33]
  Activity: Dose-dependent effect
HeLa [34]
  Ratio: 1.71
DLD-1 [35]
  Activity: 54%
HeLa [36]
  Activity: 41.6%
HeLa [37]
  Activity: 16.6%
